Assay [1] has as its target T1, human T1R2+T1R3 receptor (Homo sapiens, UniProt Q7RTX0).
T1 sequence (Q7RTX0 21-852): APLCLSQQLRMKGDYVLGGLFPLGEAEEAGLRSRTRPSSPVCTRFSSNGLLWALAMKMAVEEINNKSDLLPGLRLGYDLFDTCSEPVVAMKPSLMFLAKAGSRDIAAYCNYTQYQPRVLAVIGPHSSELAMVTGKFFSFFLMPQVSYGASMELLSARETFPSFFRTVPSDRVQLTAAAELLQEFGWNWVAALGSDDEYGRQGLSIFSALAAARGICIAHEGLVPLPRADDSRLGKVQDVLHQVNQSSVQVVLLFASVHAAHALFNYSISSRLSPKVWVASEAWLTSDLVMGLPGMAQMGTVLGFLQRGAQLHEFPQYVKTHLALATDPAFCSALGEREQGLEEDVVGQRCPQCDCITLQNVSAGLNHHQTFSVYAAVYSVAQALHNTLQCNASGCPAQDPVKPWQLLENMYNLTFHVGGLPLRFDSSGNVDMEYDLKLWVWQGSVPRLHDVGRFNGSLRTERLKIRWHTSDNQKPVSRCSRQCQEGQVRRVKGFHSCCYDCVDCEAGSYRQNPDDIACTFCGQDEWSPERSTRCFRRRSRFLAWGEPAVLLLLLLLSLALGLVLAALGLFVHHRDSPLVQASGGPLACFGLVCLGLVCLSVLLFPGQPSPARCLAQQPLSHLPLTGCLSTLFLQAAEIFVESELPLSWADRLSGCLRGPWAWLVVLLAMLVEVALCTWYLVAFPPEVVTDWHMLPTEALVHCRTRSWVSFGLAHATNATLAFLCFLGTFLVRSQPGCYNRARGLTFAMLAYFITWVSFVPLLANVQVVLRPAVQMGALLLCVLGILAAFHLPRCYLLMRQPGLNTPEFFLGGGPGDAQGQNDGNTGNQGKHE
T1 sequence (Q8TE23 20-839 partner): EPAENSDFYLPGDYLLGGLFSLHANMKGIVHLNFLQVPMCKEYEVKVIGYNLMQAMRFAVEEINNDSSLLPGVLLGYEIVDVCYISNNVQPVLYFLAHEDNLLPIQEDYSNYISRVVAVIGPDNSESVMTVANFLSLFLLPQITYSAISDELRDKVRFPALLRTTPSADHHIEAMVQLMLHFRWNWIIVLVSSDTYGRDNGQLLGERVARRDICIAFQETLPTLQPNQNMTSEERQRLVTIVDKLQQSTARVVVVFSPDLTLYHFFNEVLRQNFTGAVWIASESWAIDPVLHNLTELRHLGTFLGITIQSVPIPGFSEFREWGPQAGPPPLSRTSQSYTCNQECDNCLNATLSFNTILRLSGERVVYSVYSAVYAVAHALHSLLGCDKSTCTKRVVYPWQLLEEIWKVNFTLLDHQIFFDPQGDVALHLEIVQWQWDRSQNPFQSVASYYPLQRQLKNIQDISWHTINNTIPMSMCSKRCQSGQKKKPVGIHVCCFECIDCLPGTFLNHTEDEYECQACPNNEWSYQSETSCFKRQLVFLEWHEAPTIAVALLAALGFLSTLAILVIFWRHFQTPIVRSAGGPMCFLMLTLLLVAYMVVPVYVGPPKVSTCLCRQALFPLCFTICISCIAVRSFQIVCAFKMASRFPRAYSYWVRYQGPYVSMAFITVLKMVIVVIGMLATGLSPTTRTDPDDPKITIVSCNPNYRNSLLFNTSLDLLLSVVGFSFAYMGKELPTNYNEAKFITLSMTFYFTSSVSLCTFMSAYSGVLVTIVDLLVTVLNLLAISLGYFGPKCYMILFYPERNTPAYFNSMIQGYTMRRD
Description: Heterologous calcium mobilization assay, human sweet receptor in HEK293 cells. In kind it is cell-based.

For assay [2], the system named is sweet and umami (MSG) taste. Description: Psychophysical self-experimentation, taste inhibition in vivo. Particulars: self-experimentation by one author; data not shown. On the set-up: species or system human.
Assay [3] has as its system PPAR-alpha. To be noted: read-out: EC50 for activating PPAR-alpha; cited from earlier work.
Assay [4] deals with mouse sweet receptor (mT1R2+mT1R3). The assay is described as follows: Heterologous calcium mobilization assay, mouse sweet receptor. The class given is cell-based. To be noted: activated by 2.5mM sucralose; inhibitor at ~5-times IC50.

With `O=C(O)COc1ccc(Cl)cc1Cl` [2,4D, (2,4-dichlorophenoxy)acetic acid], the IC50 in assay [1] was 70 µM.
With `CC(C)(Oc1ccc(Cl)cc1)C(=O)O` [Clofibric acid, 2-(4-chlorophenoxy)-2-methylpropanoic acid], in assay [2], the “inhibition of sweet taste in vivo” value was “potently inhibited” and the “inhibition of umami (MSG) taste in vivo” value is given as “potently inhibited”. The EC50 in assay [3] was 50 to 55 µM.
With `COc1ccc(OC(C)C(=O)O)cc1` (centres unmarked) [Lactisole, 2-(4-methoxyphenoxy) propanoic acid], the “effect on the mouse sweet receptor” value in assay [4] is “no effect”.

Broadly, the IC50 is the point on the concentration scale where inhibition reaches its midpoint. Broadly, the EC50 is the midpoint of the concentration-response curve.

Source of the values: publication PMC2783803 (Journal of medicinal chemistry, 2009).
